Reference: patent US12077503B2, “Substituted cyclic amides and their use as herbicides” (FMC CORPORATION, priority 2015, dated 2024)

Tests used:
Type in all cases: in vivo
[1] = test system: ducksalad (Heteranthera limosa); test: Test B flooded paddy test; settings: Flood, 250 g ai/ha; 0 to 100 scale where 0 is no effect and 100 is complete control; 13 to 15 d
Outline: (§1)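 2-leaf plants; pots flooded 3 cm over soil; cpd added to paddy water; depth held; greenhouse 13–15 d; visual rating vs controls, 0 = no effect, 100 = complete control.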

[2] = test system: rice (Oryra sativa); test: Test B flooded paddy test; settings: Flood, 250 g ai/ha; 0 to 100 scale where 0 is no effect and 100 is complete control; 13 to 15 d
Outline: as §1

[3] = test system: barnyardgrass (Echinochloa crus-galli); test: Test B flooded paddy test; settings: Flood, 250 g ai/ha; 0 to 100 scale where 0 is no effect and 100 is complete control; 13 to 15 d
Outline: as §1

[4] = test system: sedge, umbrella (small-flower umbrella sedge, Cyperus difformis); test: Test B flooded paddy test; settings: Flood, 250 g ai/ha; 0 to 100 scale where 0 is no effect and 100 is complete control; 13 to 15 d
Outline: as §1

[5] = test system: blackgrass (Alopecurus myosuroides); test: Test A postemergence; settings: for Blackgrass plant response rating: 125 g ai/ha, postemergence, visual injury rating on 0 to 100 scale (0 no effect, 100 complete control), approx. 10 d; for Plant response rating, Blackgrass: Postemergence, 500 g ai/ha, 0 to 100 scale where 0 is no effect and 100 is complete control
Outline: (§2)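 In a loam soil and sand blend, planted seeds got a preemergence directed soil spray, and young plants at the one- to two-leaf stage, 2–10 cm high, got a postemergence application; ~10 d greenhouse hold; injury rated visually, 0 = none, 100 = complete control.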

[6] = test system: pigweed (Amaranthus retroflexus); test: Test A postemergence; settings: for Pigweed plant response rating: 125 g ai/ha, postemergence, visual injury rating on 0 to 100 scale (0 no effect, 100 complete control), approx. 10 d; for Plant response rating, Pigweed: Postemergence, 500 g ai/ha, 0 to 100 scale where 0 is no effect and 100 is complete control
Outline: as §2

[7] = test system: ragweed (common ragweed, Ambrosia elatior); test: Test A postemergence; settings: for Ragweed plant response rating: 125 g ai/ha, postemergence, visual injury rating on 0 to 100 scale (0 no effect, 100 complete control), approx. 10 d; for Plant response rating, Ragweed: Postemergence, 500 g ai/ha, 0 to 100 scale where 0 is no effect and 100 is complete control
Outline: as §2

[8] = test system: wheat (Triticum aestivum); test: Test A postemergence; settings: for Wheat plant response rating: 125 g ai/ha, postemergence, visual injury rating on 0 to 100 scale (0 no effect, 100 complete control), approx. 10 d; for Plant response rating, Wheat: Postemergence, 500 g ai/ha, 0 to 100 scale where 0 is no effect and 100 is complete control
Outline: as §2

[9] = test system: giant foxtail (Setaria faberii); test: Test A postemergence; settings: for Foxtail, Giant plant response rating: 125 g ai/ha, postemergence, visual injury rating on 0 to 100 scale (0 no effect, 100 complete control), approx. 10 d; for Plant response rating, Foxtail, Giant: Postemergence, 500 g ai/ha, 0 to 100 scale where 0 is no effect and 100 is complete control
Outline: as §2

[10] = test system: Galium (catchweed bedstraw, Galium aparine); test: Test A postemergence; settings: for Galium plant response rating: 125 g ai/ha, postemergence, visual injury rating on 0 to 100 scale (0 no effect, 100 complete control), approx. 10 d; for Plant response rating, Galium: Postemergence, 500 g ai/ha, 0 to 100 scale where 0 is no effect and 100 is complete control
Outline: as §2

[11] = test system: corn (Zea mays); test: Test A postemergence; settings: for Corn plant response rating: 125 g ai/ha, postemergence, visual injury rating on 0 to 100 scale (0 no effect, 100 complete control), approx. 10 d; for Plant response rating, Corn: Postemergence, 500 g ai/ha, 0 to 100 scale where 0 is no effect and 100 is complete control
Outline: as §2

[12] = test system: ryegrass, Italian (Italian ryegrass, Lolium multiflorum); test: Test A postemergence; settings: for Ryegrass, Italian plant response rating: 125 g ai/ha, postemergence, visual injury rating on 0 to 100 scale (0 no effect, 100 complete control), approx. 10 d; for Plant response rating, Ryegrass, Italian: Postemergence, 500 g ai/ha, 0 to 100 scale where 0 is no effect and 100 is complete control
Outline: as §2

[13] = test system: Kochia (Kochia scoparia); test: Test A postemergence; settings: for Kochia plant response rating: 125 g ai/ha, postemergence, visual injury rating on 0 to 100 scale (0 no effect, 100 complete control), approx. 10 d; for Plant response rating, Kochia: Postemergence, 500 g ai/ha, 0 to 100 scale where 0 is no effect and 100 is complete control
Outline: as §2

[14] = test system: barnyardgrass (Echinochloa crus-galli); test: Test A postemergence; settings: for Barnyardgrass plant response rating: 125 g ai/ha, postemergence, visual injury rating on 0 to 100 scale (0 no effect, 100 complete control), approx. 10 d; for Plant response rating, Barnyardgrass: Postemergence, 500 g ai/ha, 0 to 100 scale where 0 is no effect and 100 is complete control
Outline: as §2

[15] = test system: pigweed (Amaranthus retroflexus); test: Test A preemergence; settings: Preemergence; for Plant response rating, Pigweed: 125 g ai/ha, visual injury after approximately 10 d, 0 to 100 scale where 0 is no effect and 100 is complete control; for Pigweed plant response rating (0 to 100 scale, 0 is no effect, 100 is complete control): 500 g ai/ha, visual injury approx. 10 d
[16] = test system: ragweed (common ragweed, Ambrosia elatior); test: Test A preemergence; settings: Preemergence; for Plant response rating, Ragweed: 125 g ai/ha, visual injury after approximately 10 d, 0 to 100 scale where 0 is no effect and 100 is complete control; for Ragweed plant response rating (0 to 100 scale, 0 is no effect, 100 is complete control): 500 g ai/ha, visual injury approx. 10 d
Outline: as §2

[17] = test system: giant foxtail (Setaria faberii); test: Test A preemergence; settings: Preemergence; for Plant response rating, Foxtail, Giant: 125 g ai/ha, visual injury after approximately 10 d, 0 to 100 scale where 0 is no effect and 100 is complete control; for Foxtail, Giant plant response rating (0 to 100 scale, 0 is no effect, 100 is complete control): 500 g ai/ha, visual injury approx. 10 d
Outline: as §2

[18] = test system: ryegrass, Italian (Italian ryegrass, Lolium multiflorum); test: Test A preemergence; settings: Preemergence; for Plant response rating, Ryegrass, Italian: 125 g ai/ha, visual injury after approximately 10 d, 0 to 100 scale where 0 is no effect and 100 is complete control; for Ryegrass, Italian plant response rating (0 to 100 scale, 0 is no effect, 100 is complete control): 500 g ai/ha, visual injury approx. 10 d
Outline: as §2

[19] = test system: Kochia (Kochia scoparia); test: Test A preemergence; settings: Preemergence; for Plant response rating, Kochia: 125 g ai/ha, visual injury after approximately 10 d, 0 to 100 scale where 0 is no effect and 100 is complete control; for Kochia plant response rating (0 to 100 scale, 0 is no effect, 100 is complete control): 500 g ai/ha, visual injury approx. 10 d
Outline: as §2

[20] = test system: barnyardgrass (Echinochloa crus-galli); test: Test A preemergence; settings: Preemergence; for Plant response rating, Barnyardgrass: 125 g ai/ha, visual injury after approximately 10 d, 0 to 100 scale where 0 is no effect and 100 is complete control; for Barnyardgrass plant response rating (0 to 100 scale, 0 is no effect, 100 is complete control): 500 g ai/ha, visual injury approx. 10 d
Outline: as §2

Row | SMILES | Plant response rating, Ducksalad [1] | Plant response rating, Rice [2] | Plant response rating, Barnyardgrass [3] | Plant response rating, Sedge, Umbrella [4] | Blackgrass plant response rating [5] | Plant response rating, Blackgrass [5] | Pigweed plant response rating [6] | Plant response rating, Pigweed [6] | Ragweed plant response rating [7] | Plant response rating, Ragweed [7] | Wheat plant response rating [8] | Plant response rating, Wheat [8] | Foxtail, Giant plant response rating [9] | Plant response rating, Foxtail, Giant [9] | Galium plant response rating [10] | Plant response rating, Galium [10] | Corn plant response rating [11] | Plant response rating, Corn [11] | Ryegrass, Italian plant response rating [12] | Plant response rating, Ryegrass, Italian [12] | other results
1 | COCc1cccc(C2CNC(=O)C2C(=O)Nc2cccc(F)c2F)c1 (stereo not drawn) [Compound 497] | 90 | 20 | 70 | 0 | 30 | 30 | 0 | 0 | 0 | 0 | 0 | 40 | 20 | 50 | 0 | 50 | 0 | 40 | 0 | 20 | Kochia plant response rating [13]: 30; Plant response rating, Kochia [13]: 30; Barnyardgrass plant response rating [14]: 60; Plant response rating, Barnyardgrass [14]: 80; Plant response rating, Pigweed [15]: 30; Pigweed plant response rating (0 to 100 scale, 0 is no effect, 100 is complete control) [15]: 20; Plant response rating, Ragweed [16]: 0; Ragweed plant response rating (0 to 100 scale, 0 is no effect, 100 is complete control) [16]: 0; Plant response rating, Foxtail, Giant [17]: 90; Foxtail, Giant plant response rating (0 to 100 scale, 0 is no effect, 100 is complete control) [17]: 90; Plant response rating, Ryegrass, Italian [18]: 0; Ryegrass, Italian plant response rating (0 to 100 scale, 0 is no effect, 100 is complete control) [18]: 30; Plant response rating, Kochia [19]: 20; Kochia plant response rating (0 to 100 scale, 0 is no effect, 100 is complete control) [19]: 50; Plant response rating, Barnyardgrass [20]: 90; Barnyardgrass plant response rating (0 to 100 scale, 0 is no effect, 100 is complete control) [20]: 90
2 | COCc1cccc(C2CNC(=O)C2C(=O)Nc2ccccc2F)c1 (stereo not drawn) [Compound 496] | 85 | 0 | 60 | 0 | 0 | 0 | 0 | 0 | 0 | 0 | 0 | 0 | 20 | 50 | 0 | 30 | 0 | 0 | 0 | 0 | Kochia plant response rating [13]: 0; Plant response rating, Kochia [13]: 0; Barnyardgrass plant response rating [14]: 60; Plant response rating, Barnyardgrass [14]: 80; Plant response rating, Pigweed [15]: 0; Pigweed plant response rating (0 to 100 scale, 0 is no effect, 100 is complete control) [15]: 0; Plant response rating, Ragweed [16]: 0; Ragweed plant response rating (0 to 100 scale, 0 is no effect, 100 is complete control) [16]: 0; Plant response rating, Foxtail, Giant [17]: 30; Foxtail, Giant plant response rating (0 to 100 scale, 0 is no effect, 100 is complete control) [17]: 90; Plant response rating, Ryegrass, Italian [18]: 0; Ryegrass, Italian plant response rating (0 to 100 scale, 0 is no effect, 100 is complete control) [18]: 0; Plant response rating, Kochia [19]: 0; Kochia plant response rating (0 to 100 scale, 0 is no effect, 100 is complete control) [19]: 40; Plant response rating, Barnyardgrass [20]: 60; Barnyardgrass plant response rating (0 to 100 scale, 0 is no effect, 100 is complete control) [20]: 90
